Consider three compounds from ChEMBL document CHEMBL3600308, “Antiproliferative Trihydroxyalkylcyclohexenones from Pleiogynium timoriense” (J Nat Prod, 2015).

This assay relates to A2780. The assay can be described thus: Antiproliferative activity against drug-sensitive human A2780 cells assessed as inhibition of cell growth after 2 days by Alamar Blue assay. The class given is functional, cell-based. Conditions: A2780, 48 h. Background: The colour change of resazurin is a common sign of viable cells or microbes.

Take `CCCCCCCC/C=C\CCCCCCCCC[C@]1(O)C(=O)C=C[C@H](O)[C@H]1O`: the IC50 turned out to be 700 nM. The result for `CCCCCCCC/C=C\CCCCCCC[C@]1(O)C(=O)C=C[C@H](O)[C@H]1O` reads 800 nM; that for `CCCCCCCC/C=C\CCCCCCCCCCC[C@]1(O)C(=O)C=C[C@H](O)[C@H]1O`, 800 nM.

For orientation: IC50 means the concentration needed to halve the response being measured.
